These are literature values, as cited in US5183829A, “Oral liquid compositions of non-steroidal anti-inflammatory drugs” (priority 1991, dated 1993).

The conditions of the data set: enteric coated tablet vs aqueous solution.

For the compound `O=C(O)Cc1ccccc1Nc1c(Cl)cccc1Cl` [sodium diclofenac], the oral bioavailability result is “more bioavailable orally from an enteric coated tablet than from an aqueous solution”.
